From patent US9108903B2, “Amides as modulators of sodium channels” (VERTEX PHARMACEUTICALS INCORPORATED, priority 2013, dated 2015)

These compounds were tested against human Nav1.8 (Homo sapiens (Human), UniProt Q9Y5Y9) (assay: E-VIPR optical membrane potential assay with electrical stimulation). Conditions: HEK cells expressing human Nav1.8.
Chain of human Nav1.8 (Q9Y5Y9 whole entry): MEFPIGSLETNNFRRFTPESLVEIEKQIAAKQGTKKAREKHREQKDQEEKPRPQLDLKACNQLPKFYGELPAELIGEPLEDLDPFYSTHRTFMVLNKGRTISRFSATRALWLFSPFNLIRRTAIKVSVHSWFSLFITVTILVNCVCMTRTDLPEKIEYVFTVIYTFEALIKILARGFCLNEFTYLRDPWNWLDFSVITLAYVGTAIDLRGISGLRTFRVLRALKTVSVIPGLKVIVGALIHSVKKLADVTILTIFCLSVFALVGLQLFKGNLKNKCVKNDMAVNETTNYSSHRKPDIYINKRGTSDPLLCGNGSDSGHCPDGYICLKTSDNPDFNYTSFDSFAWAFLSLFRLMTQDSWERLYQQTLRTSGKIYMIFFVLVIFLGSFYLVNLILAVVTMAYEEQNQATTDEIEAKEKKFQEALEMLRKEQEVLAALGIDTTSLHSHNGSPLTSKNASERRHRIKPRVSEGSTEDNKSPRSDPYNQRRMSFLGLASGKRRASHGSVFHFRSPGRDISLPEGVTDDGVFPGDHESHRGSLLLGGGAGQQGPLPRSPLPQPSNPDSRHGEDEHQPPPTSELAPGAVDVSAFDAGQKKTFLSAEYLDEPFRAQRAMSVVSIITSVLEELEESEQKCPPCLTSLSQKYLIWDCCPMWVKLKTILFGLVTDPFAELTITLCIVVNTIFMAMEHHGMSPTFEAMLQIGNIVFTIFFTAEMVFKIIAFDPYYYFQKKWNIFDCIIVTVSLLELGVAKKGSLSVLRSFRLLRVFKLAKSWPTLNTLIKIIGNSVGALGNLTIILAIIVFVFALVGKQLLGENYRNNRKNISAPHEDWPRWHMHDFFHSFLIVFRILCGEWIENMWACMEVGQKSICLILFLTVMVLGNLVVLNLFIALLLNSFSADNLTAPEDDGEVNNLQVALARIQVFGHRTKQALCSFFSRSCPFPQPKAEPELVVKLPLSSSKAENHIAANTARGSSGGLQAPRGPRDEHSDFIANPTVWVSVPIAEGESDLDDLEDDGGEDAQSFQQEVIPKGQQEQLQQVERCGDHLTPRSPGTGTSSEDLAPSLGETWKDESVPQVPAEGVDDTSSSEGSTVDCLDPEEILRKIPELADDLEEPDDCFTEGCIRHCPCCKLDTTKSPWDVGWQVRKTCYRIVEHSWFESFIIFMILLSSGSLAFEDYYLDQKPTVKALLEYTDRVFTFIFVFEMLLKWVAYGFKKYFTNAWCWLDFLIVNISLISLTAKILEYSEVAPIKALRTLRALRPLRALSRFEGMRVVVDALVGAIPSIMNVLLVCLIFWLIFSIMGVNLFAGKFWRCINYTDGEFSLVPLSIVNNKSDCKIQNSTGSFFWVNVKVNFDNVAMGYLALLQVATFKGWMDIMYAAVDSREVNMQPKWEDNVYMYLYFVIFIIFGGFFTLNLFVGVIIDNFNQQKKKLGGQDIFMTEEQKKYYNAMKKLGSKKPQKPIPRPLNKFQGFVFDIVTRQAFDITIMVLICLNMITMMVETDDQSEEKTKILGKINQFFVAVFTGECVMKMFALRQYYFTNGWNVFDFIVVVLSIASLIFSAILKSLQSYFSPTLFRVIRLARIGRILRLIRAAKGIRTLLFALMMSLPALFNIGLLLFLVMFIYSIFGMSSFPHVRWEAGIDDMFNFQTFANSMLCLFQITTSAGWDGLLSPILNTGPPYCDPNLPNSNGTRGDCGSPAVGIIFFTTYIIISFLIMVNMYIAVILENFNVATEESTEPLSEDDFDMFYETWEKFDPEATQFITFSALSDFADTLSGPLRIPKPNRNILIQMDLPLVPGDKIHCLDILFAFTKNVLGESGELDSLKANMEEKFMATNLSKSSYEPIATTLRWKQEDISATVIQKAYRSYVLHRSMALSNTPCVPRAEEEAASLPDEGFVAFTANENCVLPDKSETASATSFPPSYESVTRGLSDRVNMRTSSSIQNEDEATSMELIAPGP
Assay type: cell-based
Excerpt: Assays for Detecting and Measuring NaV Inhibition Properties of Compounds E-VIPR Optical Membrane Potential Assay Method with Electrical Stimulation
Sodium channels are voltage-dependent proteins that can be activated by inducing membrane voltage changes by applying electric fields. The electrical stimulation instrument and methods of use are described in Ion Channel Assay Methods PCT/US01/21652, herein incorporated by reference and are referred to as E-VIPR. The instrument comprises a microtiter plate handler, an optical system for exciting the coumarin dye while simultaneously recording the coumarin and oxonol emissions, a waveform generator, a current- or voltage-controlled amplifier, and a device for inserting electrodes in well. Under integrated computer control, this instrument passes user-programmed electrical stimulus protocols to cells within the wells of the microtiter plate.
24 hours before the assay on E-VIPR, HEK cells expressing human Nav1.8 were seeded in 384-well poly-lysine coated plates at 15,000-20,000 cells per well. HEK cells were grown in media (exact composition is specific to each cell type and NaV subtype) supplemented with 10% FBS (Fetal Bovine Serum, qualified; GibcoBRL #16140-071) and 1% Pen-Strep (Penicillin-Streptomycin; GibcoBRL #15140-122). Cells were grown in vented cap flasks, in 90% humidity and 5% CO2.
100 mg/mL Pluronic F-127 (Sigma #P2443), in dry DMSO
Compound Plates: 384-well round bottom plate, e.g. Corning 384-well Polypropylene Round Bottom #3656
Cell Plates: 384-well tissue culture treated plate, e.g. Greiner #781091-1B
Bath1 buffer: Glucose 10 mM (1.8 g/L), Magnesium Chloride (Anhydrous), 1 mM (0.095 g/L), Calcium Chloride, 2 mM (0.222 g/L), HEPES 10 mM (2.38 g/L), Potassium Chloride, 4.5 mM (0.335 g/L), Sodium Chloride 160 mM (9.35 g/L).
Hexyl Dye Solution: Bath1 Buffer+0.5% β-cyclodextrin (make this prior to use, Sigma #C4767), 8 μM CC2-DMPE+2.5 μM DiSBAC6(3). To make the solution added volume of 10% Pluronic F127 stock equal to volumes of CC2-DMPE+DiSBAC6(3). The order of preparation was first mix Pluronic and CC2-DMPE, then added DiSBAC6(3) while vortexing, then added Bath1+β-Cyclodextrin.
1) Pre-spotted compounds (in neat DMSO) into compound plates. Vehicle control (neat DMSO), the positive control (20 mM DMSO stock tetracaine, 125 μM final in assay) and test compounds were added to each well at 160× desired final concentration in neat DMSO. Final compound plate volume was 80 μL (80-fold intermediate dilution from 1 μL DMSO spot; 160-fold final dilution after transfer to cell plate). Final DMSO concentration for all wells in assay was 0.625%.
2) Prepared Hexyl Dye Solution.
3) Prepared cell plates. On the day of the assay, medium was aspirated and cells were washed three times with 100 μL of Bath1 Solution, maintaining 25 μL residual volume in each well.
4) Dispensed 25 μL per well of Hexyl Dye Solution into cell plates. Incubated for 20-35 minutes at room temp or ambient conditions.
5) Dispensed 80 μL per well of Bath1 into compound plates. Acid Yellow-17 (1 mM) was added and Potassium Chloride was altered from 4.5 to 20 mM depending on the NaV subtype and assay sensitivity.
6) Washed cell plates three times with 100 μL per well of Bath1, leaving 25 μL of residual volume. Then transfered 25 uL per well from Compound Plates to Cell Plates. Incubated for 20-35 minutes at room temp/ambient condition.
7) Read Plate on E-VIPR. Used the current-controlled amplifier to deliver stimulation wave pulses for 10 seconds and a scan rate of 200 Hz. A pre-stimulus recording was performed for 0.5 seconds to obtain the un-stimulated intensities baseline. The stimulatory waveform was followed by 0.5 seconds of post-stimulation recording to examine the relaxation to the resting state.
Data was analyzed and reported as normalized ratios of emission intensities measured in the 460 nm and 580 nm channels. The response as a function of time was reported as the ratios obtained using the following formula: […]
With COc1ccc(Oc2cc(Cl)c(Cl)cc2C(=O)Nc2ccc(C(=O)O)nc2)c(F)c1 [Compound 34, 5-(4,5-dichloro-2-(2-fluoro-4-methoxyphenoxy)benzamido)picolinic acid] the IC50 was 52 nM.
O=C(O)c1ccc(NC(=O)c2cc(Cl)c(Cl)cc2Oc2ccc(OCC(F)(F)F)cc2)cn1 [Compound 35, 5-(4,5-dichloro-2-(4-(2,2,2-trifluoroethoxy)phenoxy)benzamido)picolinic acid] showed an IC50 of 50 nM.
In the case of COc1cc(Cl)ccc1Oc1cc(Cl)c(Cl)cc1C(=O)Nc1ccc(C(=O)O)nc1 [Compound 36, 5-(4,5-dichloro-2-(4-chloro-2-methoxyphenoxy)benzamido)picolinic acid], the IC50 is reported as 39 nM.
In the case of O=C(O)c1ccc(NC(=O)c2cc(Cl)c(Cl)cc2Oc2ccccc2OC(F)F)cn1 [Compound 37, 5-(4,5-dichloro-2-(2-(difluoromethoxy)phenoxy)benzamido)picolinic acid], the IC50 is reported as 46 nM.
Cc1cc(Cl)ccc1Oc1cc(Cl)c(Cl)cc1C(=O)Nc1ccc(C(=O)O)nc1 [Compound 38, 5-(4,5-dichloro-2-(4-chloro-2-methylphenoxy)benzamido)picolinic acid] was tested, and the IC50 was 74 nM.
COc1ccc(Oc2cc(Cl)c(Cl)cc2C(=O)Nc2ccc(C(=O)O)nc2)c(OC)c1 [Compound 39, 5-(4,5-dichloro-2-(2,4-dimethoxyphenoxy)benzamido)picolinic acid] was tested, and the IC50 was 15 nM.
For COc1ccc(Oc2cc(Cl)c(Cl)cc2C(=O)Nc2ccc(C(=O)O)nc2)cc1F [Compound 40, 5-(4,5-dichloro-2-(3-fluoro-4-methoxyphenoxy)benzamido)picolinic acid], the IC50 was 34 nM.
O=C(O)c1ccc(NC(=O)c2cc(Cl)c(Cl)cc2Oc2ccc(F)cc2Cl)cn1 [Compound 41, 5-(4,5-dichloro-2-(2-chloro-4-fluorophenoxy)benzamido)picolinic acid] showed an IC50 of 12 nM.
With O=C(O)c1ccc(NC(=O)c2cc(Cl)c(Cl)cc2Oc2ccc(F)cc2F)cn1 [Compound 42, 5-(4,5-dichloro-2-(2,4-difluorophenoxy)benzamido)picolinic acid] the IC50 was 31 nM.
Compound COc1ccc(Oc2cc(Cl)c(Cl)cc2C(=O)Nc2ccc(C(=O)O)nc2)c(Cl)c1 [Compound 43, 5-(4,5-dichloro-2-(2-chloro-4-methoxyphenoxy)benzamido)picolinic acid] has an IC50 of 65 nM.
Compound O=C(O)c1ccc(NC(=O)c2cc(Cl)c(Cl)cc2Oc2ccc(OC(F)(F)F)cc2)cn1 [Compound 44, 5-(4,5-dichloro-2-(4-(trifluoromethoxy)phenoxy)benzamido)picolinic acid] has an IC50 of 20 nM.
COc1ccccc1Oc1cc(C(F)(F)F)cc(C(F)(F)F)c1C(=O)Nc1ccc(C(=O)O)nc1 [Compound 45, 5-(2-(2-methoxyphenoxy)-4,6-bis(trifluoromethyl)benzamido)picolinic acid] gave an IC50 of 64 nM.
In the case of COc1ccc(Oc2cc(C(F)(F)F)cc(C(F)(F)F)c2C(=O)Nc2ccc(C(=O)O)nc2)cc1 [Compound 46, 5-(2-(4-methoxyphenoxy)-4,6-bis(trifluoromethyl)benzamido)picolinic acid], the IC50 is reported as 66 nM.
With Cc1cc(F)ccc1Oc1cc(C(F)(F)F)cc(C(F)(F)F)c1C(=O)Nc1ccc(C(=O)O)nc1 [Compound 47, 5-(2-(4-fluoro-2-methylphenoxy)-4,6-bis(trifluoromethyl)benzamido)picolinic acid] the IC50 was 42 nM.
Compound COc1cc(F)ccc1Oc1cc(C(F)(F)F)cc(C(F)(F)F)c1C(=O)Nc1ccc(C(=O)O)nc1 [Compound 48, 5-(2-(4-fluoro-2-methoxyphenoxy)-4,6-bis(trifluoromethyl)benzamido)picolinic acid] has an IC50 of 14 nM.
In the case of COc1ccc(Oc2cc(C(F)(F)F)cc(C(F)(F)F)c2C(=O)Nc2ccc(C(=O)O)nc2)c(OC)c1 [Compound 49, 5-(2-(2,4-dimethoxyphenoxy)-4,6-bis(trifluoromethyl)benzamido)picolinic acid], the IC50 is reported as 6 nM.
In the case of O=C(O)c1ccc(NC(=O)c2c(Oc3ccc(F)cc3)cc(C(F)(F)F)cc2C(F)(F)F)cn1 [Compound 50, 5-(2-(4-fluorophenoxy)-4,6-bis(trifluoromethyl)benzamido)picolinic acid], the IC50 is reported as 130 nM.
COc1cc(F)ccc1Oc1cc(Cl)c(Cl)cc1C(=O)Nc1ccc(C(=O)O)nc1 [Compound 51, 5-(4,5-dichloro-2-(4-fluoro-2-methoxyphenoxy)benzamido)picolinic acid] showed an IC50 of 9 nM.
COc1cc(F)ccc1Oc1cc(C(C)(C)C)ccc1C(=O)Nc1ccc(C(=O)O)nc1 [Compound 52, 5-(4-(tert-butyl)-2-(4-fluoro-2-methoxyphenoxy)benzamido)picolinic acid] showed an IC50 of 31 nM.
Compound Cc1cc(F)ccc1Oc1cc(C(C)(C)C)ccc1C(=O)Nc1ccc(C(=O)O)nc1 [Compound 53, 5-(4-(tert-butyl)-2-(4-fluoro-2-methylphenoxy)benzamido)picolinic acid] has an IC50 of 46 nM.
With CC(C)(C)c1ccc(C(=O)Nc2ccc(C(=O)O)nc2)c(Oc2ccc(F)cc2)c1 [Compound 54, 5-(4-(tert-butyl)-2-(4-fluorophenoxy)benzamido)picolinic acid] the IC50 was 180 nM.
O=C(O)c1ccc(NC(=O)c2ccccc2Oc2ccc(F)cc2)cn1 [Compound 55, 5-(2-(4-fluorophenoxy)benzamido)picolinic acid] showed an IC50 of 4350 nM.
In the case of O=C(O)c1ccc(NC(=O)c2ccc(C(F)(F)F)cc2Oc2ccc(F)cc2)cn1 [Compound 56, 5-(2-(4-fluorophenoxy)-4-(trifluoromethyl)benzamido)picolinic acid], the IC50 is reported as 250 nM.
COc1cc(F)ccc1Oc1ccc(C(F)(F)F)cc1C(=O)Nc1ccc(C(=O)O)nc1 [Compound 57, 5-(2-(4-fluoro-2-methoxyphenoxy)-5-(trifluoromethyl)benzamido)picolinic acid] was tested, and the IC50 was 96 nM.
O=C(O)c1ccc(NC(=O)c2cc(C(F)(F)F)ccc2Oc2ccc(F)cc2Cl)cn1 [Compound 58, 5-(2-(2-chloro-4-fluorophenoxy)-5-(trifluoromethyl)benzamido)picolinic acid] gave an IC50 of 80 nM.
Compound COc1ccc(F)cc1Oc1ccc(C(F)(F)F)cc1C(=O)Nc1ccc(C(=O)O)nc1 [Compound 59, 5-(2-(5-fluoro-2-methoxyphenoxy)-5-(trifluoromethyl)benzamido)picolinic acid] has an IC50 of 740 nM.
With O=C(O)c1ccc(NC(=O)c2cc(C(F)(F)F)ccc2Oc2ccccc2OC(F)F)cn1 [Compound 60, 5-(2-(2-(difluoromethoxy)phenoxy)-5-(trifluoromethyl)benzamido)picolinic acid] the IC50 was 650 nM.
Cc1cc(Cl)ccc1Oc1ccc(C(F)(F)F)cc1C(=O)Nc1ccc(C(=O)O)nc1 [Compound 61, 5-(2-(4-chloro-2-methylphenoxy)-5-(trifluoromethyl)benzamido)picolinic acid] gave an IC50 of 145 nM.
COc1ccccc1Oc1ccc(C(F)(F)F)cc1C(=O)Nc1ccc(C(=O)O)nc1 [Compound 62, 5-(2-(2-methoxyphenoxy)-5-(trifluoromethyl)benzamido)picolinic acid] gave an IC50 of 370 nM.
O=C(O)c1ccc(NC(=O)c2cc(C(F)(F)F)ccc2Oc2ccccc2Cl)cn1 [Compound 63, 5-(2-(2-chlorophenoxy)-5-(trifluoromethyl)benzamido)picolinic acid] gave an IC50 of 430 nM.
In the case of CC(C)Oc1ccccc1Oc1ccc(C(F)(F)F)cc1C(=O)Nc1ccc(C(=O)O)nc1 [Compound 64, 5-(2-(2-isopropoxyphenoxy)-5-(trifluoromethyl)benzamido)picolinic acid], the IC50 is reported as 755 nM.
